Structures can show the parent of a compound that is named as a salt. Where two headings read alike, the source gives them in different places.
System: Human Skeletal Cells (SKM)
Experiment: Protective effect on cell death induced by maitotoxin on human skeletal cells (SKM), WST-1 readout
Type: cell-based
Conditions: maitotoxin 24 h
Experimental: The principle of the test is the following: maitotoxin is a toxin which causes the opening of the calcium channels of cells. The resulting intra-cellular flow of calcium is at the origin of the death of the cell. During this process of cell death, a cysteine-dependent protease, calpain, is activated, and an abundance of free radicals is produced. The test consists of incubating the cells in the presence of the composition to be tested, in order to delay or inactivate cell death and thus determine the protective effect.
The myoblasts are seeded at 2500 cells per well in 96-well plates in a DMEM 10% FCS (foetal calf serum) culture medium supplemented with amphotericin B, human recombinant epidermal growth factor and dexamethasone. Three days after seeding, the cells have adhered to the base of the well, the differentiation of the cells to myotubes is induced by adding 100 μl of DMEM F12 medium containing 2% horse serum. After three more days, 100 μl of compound to be tested are placed at the bottom of the well. After incubation for one hour at 37° C. under an atmosphere of 5% CO2, the maitotoxin (MTX) (Wako, ref: 131-10731) is added to evaluate the protective effect (concentration-effect) of the compound to be tested on cell death.
After an incubation time of 24 h, the culture medium is replaced by a DMEM 10% FCS medium supplemented by WST-1. […] The cells are incubated for 1 hour in the presence of WST-1. Then the number of live cells is determined using a Perkin-Elmer Wallac Envision 2101 device by reading the absorbance at 450 nm. The concentration-effect of the products on the cell survival rate is then calculated.
The CE50 is deduced by linear regression: concentration with respect to the percentage of protection. The mathematical method used is the isobologram approach described in: “Drug synergism and dose-effect data analysis, Ronald J. Tallarida, Chapman & Hall/CRC, 2000”.

SMILES: CC(=O)OC1OCC[C@@H]1NC(=O)[C@H](CC(C)C)NC(=O)c1ccc2c(c1)Nc1ccccc1S2 (stereo partly drawn) [(3S)-3-{[N-(10H-phenothiazin-2-ylcarbonyl)-L-leucyl]amino}tetrahydrofuran-2-yl acetate]
- EC50 (Homo sapiens, 24 h, read-out: EC50 μM After incubation for 24 h with the toxin, single substance (proportion 1), cell mortality rate induced by the toxin 97%): 29.1 µM

SMILES: CC(C)C[C@H](NC(=N)c1ccc2c(c1)Nc1ccccc1S2)C(=O)N[C@H]1CCOC1O (stereo partly drawn) [Example 5, N^1-[(3S)-2-hydroxytetrahydrofuran-3-yl]-N^2-[imino(10H-phenothiazin-2-yl)methyl]-L-leucinamide hydroiodide]
- EC50 (Homo sapiens, 24 h, read-out: EC50 μM After incubation for 24 h with the toxin, single substance (proportion 1), cell mortality rate induced by the toxin 84%): 6.26 µM

SMILES: CC(C)C[C@H](NC(=N)c1ccc2c(c1)Nc1ccccc1S2)C(=O)N[C@H]1CCOC1O (stereo partly drawn) [Example 7, N^1-[(3S)-2-hydroxytetrahydrofuran-3-yl]-N^2-[imino(10H-phenothiazin-2-yl)methyl]-L-leucinamide hydrochloride]
- EC50 (Homo sapiens, 24 h, read-out: EC50 μM After incubation for 24 h with the toxin, single substance (proportion 1), cell mortality rate induced by the toxin 96%): 5.92 µM

SMILES: C[C@H]1C[C@@H]2[C@H]([C@@H](O)C[C@@]3(C)[C@H]2CC[C@]3(O)C(=O)CO)[C@@]2(C)C=CC(=O)C=C12 [α-methylprednisolone]
- EC50 (single substance (proportion 1), cell mortality rate induced by the toxin 84%, read-out: EC50 μM After incubation for 24 h with the toxin): 87.6 µM
- EC50 (single substance (proportion 1), cell mortality rate induced by the toxin 96%, read-out: EC50 μM After incubation for 24 h with the toxin): 169 µM
- EC50 (single substance (proportion 1), cell mortality rate induced by the toxin 97%, read-out: EC50 μM After incubation for 24 h with the toxin): 107 µM
